Assay results taken from PubChem BioAssay (NCI).
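Briefly, cells in 96-well plates were exposed to five compound concentrations for 48 h, and endpoints were estimated by linear interpolation. Here, GI50 denotes the concentration required for 50% inhibition of growth. TGI: total growth inhibition.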

Tests used:
Experiment in all cases: NCI anticancer screen, dose series, 48 h
[1] = test system: SK-MEL-5 melanoma
[2] = test system: U251 CNS
[3] = test system: ACHN renal
[4] = test system: RXF 393 renal
[5] = test system: NCI-H23 lung
[6] = test system: CAKI-1 renal
[7] = test system: NCI-H460 lung
[8] = test system: UACC-62 melanoma
[9] = test system: HS 578T breast
[10] = test system: COLO 205 colon
[11] = test system: OVCAR-4 ovarian
[12] = test system: SK-MEL-28 melanoma
[13] = test system: KM12 colon
[14] = test system: SF-295 CNS
[15] = test system: MOLT-4 leukemia
[16] = test system: HL-60(TB) leukemia
[17] = test system: MCF7 breast
[18] = test system: MDA-MB-468 breast
[19] = test system: NCI-H226 lung
[20] = test system: HCT-116 colon
[21] = test system: SNB-19 CNS
[22] = test system: 786-0 renal
[23] = test system: SNB-75 CNS
[24] = test system: MDA-MB-231 breast
[25] = test system: CCRF-CEM leukemia
[26] = test system: A549 NSCLC
[27] = test system: SW-620 colon
[28] = test system: MDA-MB-435
[29] = test system: SR leukemia
[30] = test system: A498 renal
[31] = test system: UACC-257 melanoma
[32] = test system: SF-268 CNS
[33] = test system: SK-MEL-2 melanoma
[34] = test system: T-47D breast
[35] = test system: BT-549 breast
[36] = test system: OVCAR-8 ovarian
[37] = test system: PC-3 prostate
[38] = test system: MALME-3M melanoma
[39] = test system: SK-OV-3 ovarian
[40] = test system: SN12C renal
[41] = test system: OVCAR-5 ovarian
[42] = test system: HCT-15 colon
[43] = test system: EKVX NSCLC
[44] = test system: NCI-H522 lung
[45] = test system: NCI/ADR-RES ovarian
[46] = test system: IGROV1 ovarian
[47] = test system: K-562 leukemia
[48] = test system: OVCAR-3 ovarian
[49] = test system: SF-539 CNS
[50] = test system: DU-145 prostate
[51] = test system: UO-31 renal
[52] = test system: RPMI-8226 leukemia
[53] = test system: HOP-62 NSCLC
[54] = test system: M14 melanoma
[55] = test system: TK-10 renal
[56] = test system: HOP-92 NSCLC
[57] = test system: HCC-2998 colon

## O=C1CCC(N2C(=O)c3cccc(NCCCCCC(=O)N4CCN(c5ccc6nc7c(nc6c5C(F)(F)F)C(=O)c5ncccc5C7=O)CC4)c3C2=O)C(=O)N1 (centres undefined)
[1]
  GI50: 296 nM
  TGI: 1040 nM
[2]
  GI50: 177 nM
  TGI: 577 nM
[3]
  GI50: 1090 nM
  TGI: 2530 nM
[4]
  GI50: 981 nM
  TGI: 2060 nM
[5]
  GI50: 138 nM
  TGI: 315 nM
[6]
  GI50: 889 nM
  TGI: 2200 nM
[7]
  GI50: 141 nM
  TGI: 287 nM
[8]
  GI50: 529 nM
  TGI: 1540 nM
[9]
  GI50: 946 nM
  TGI: 3920 nM
[10]
  GI50: 175 nM
  TGI: 475 nM
[11]
  GI50: 1490 nM
  TGI: 4830 nM
[12]
  GI50: 386 nM
  TGI: 1290 nM
[13]
  GI50: 1430 nM
  TGI: 3590 nM
[14]
  GI50: 150 nM
  TGI: 384 nM
[15]
  GI50: 1500 nM
  TGI: > 17800 nM
[16]
  GI50: 919 nM
  TGI: > 18800 nM
[17]
  GI50: 197 nM
  TGI: 705 nM
[18]
  GI50: 1180 nM
  TGI: 2680 nM
[19]
  GI50: 160 nM
  TGI: 1100 nM
[20]
  GI50: 1780 nM
  TGI: 4620 nM
[21]
  GI50: 149 nM
  TGI: 393 nM
[22]
  GI50: 1590 nM
  TGI: 4580 nM
[23]
  GI50: 743 nM
  TGI: 1590 nM
[24]
  GI50: 23.4 nM
  TGI: 2500 nM
[25]
  GI50: 1970 nM
  TGI: > 70500 nM
[26]
  GI50: 193 nM
  TGI: 712 nM
[27]
  GI50: 368 nM
  TGI: 1810 nM
[28]
  GI50: 555 nM
  TGI: 1540 nM
[29]
  GI50: 227 nM
  TGI: > 70500 nM
[30]
  GI50: 1200 nM
  TGI: 2290 nM
[31]
  GI50: 1060 nM
  TGI: 2170 nM
[32]
  GI50: 1360 nM
  TGI: 5050 nM
[33]
  GI50: 1030 nM
  TGI: 2160 nM
[34]
  GI50: 1560 nM
  TGI: 5290 nM
[35]
  GI50: 244 nM
  TGI: 1460 nM
[36]
  GI50: 1300 nM
  TGI: 3670 nM
[37]
  GI50: 376 nM
  TGI: > 19000 nM
[38]
  GI50: 76.2 nM
  TGI: 541 nM
[39]
  GI50: 768 nM
  TGI: 2200 nM
[40]
  GI50: 192 nM
  TGI: 738 nM
[41]
  GI50: 1010 nM
  TGI: 2170 nM
[42]
  GI50: 81.9 nM
  TGI: 813 nM
[43]
  GI50: 1300 nM
  TGI: 3920 nM
[44]
  GI50: 1020 nM
  TGI: 2200 nM
[45]
  GI50: 2070 nM
  TGI: 20800 nM
[46]
  GI50: 827 nM
  TGI: 1830 nM
[47]
  GI50: 1010 nM
  TGI: > 70500 nM
[48]
  GI50: 1190 nM
  TGI: 3210 nM
[49]
  GI50: 1000 nM
  TGI: 1950 nM
[50]
  GI50: 163 nM
  TGI: 398 nM
[51]
  GI50: 892 nM
  TGI: 1810 nM
[52]
  GI50: 741 nM
  TGI: 4540 nM
[53]
  GI50: 321 nM
  TGI: 1400 nM
[54]
  GI50: 130 nM
  TGI: 292 nM
[55]
  GI50: 1920 nM
  TGI: 5670 nM
[56]
  GI50: 1200 nM
  TGI: 5810 nM
[57]
  GI50: 275 nM
  TGI: 1040 nM
